Data set [1] concerns harmful plants Abutilon theophrasti, Ambrosia elatior, Digitaria sanguinalis, Echinochloa crus galli, Pharbitis purpureum, Fallopia convolvulus, Setaria …. Put plainly: Herbicidal post-emergence action, second test series, mean over ten harmful plants. It counts as in vivo. Conditions: Table 5, mean value of the herbicidal actions against ten harmful plants, each herbicide 200 g of a.i./ha, safener C1 100 g of a.i./ha. The protocol: (§1) Seeds of monocotyledonous and dicotyledonous weed and crop plants are placed into sandy loam in wood fiber pots or in plastic pots, covered with soil and cultivated in a greenhouse, including during the vegetation period outdoors outside of the greenhouse, under good growth conditions. 2-3 weeks after sowing, the test plants are treated at the one- to three-leaf stage. The test compounds, formulated as wettable powders (WP) or liquid (EC) are, in various dosages with a water application rate of 300 l/ha (converted), with added wetting agent (0.2 to 0.3%), sprayed onto the plants and the surface of the soil. 3 to 4 weeks after the treatment of the test plants, the effect of the preparations is rated visually in comparison to untreated controls (herbicidal effect in percent (%): 100% effect=plants have died, 0% effect=like control plants).
(§2) In a second test series, the herbicidal action and the damage to corn of the compositions according to the invention (A+Bx+C1) was compared to that of the herbicide alone (A) and to that of a herbicidal composition (A+C1) known from the prior art.

The subject of a further data set is corn. The experiment in a line: Post-emergence damage to corn, second test series. Conditions: in vivo. The protocol:
as §1, §2

The results in this text go back to US7786041B2, “Synergistic crop plant-compatible herbicidal compositions comprising herbicides from the group of the benzoylcyclohexanediones” (priority 2005, dated 2010).

In the case of `CS(=O)(=O)c1ccc(C(=O)C2C(=O)CCCC2=O)c(Cl)c1COCC(F)(F)F` [A], in data set [1], the Herbicidal action turned out to be 86%. Also, the Damage to corn in the data set with corn is given as 11%.
